One block for each compound: values may come before it. Where a SMILES comes first, the peptide text is derived from it. The star is where a group is joined. Cbz = O=C(OCc1ccccc1)*; CHN2 = [N-]=[N+]=C*
Tests used:
[1] = test system: hippocampal slice cultures; test: Synaptic marker decline and recovery after chloroquine-induced lysosomal dysfunction in hippocampal slice cultures; assay type: cell-based, rat; conditions: for recovery of the postsynaptic marker GluR1 concentration / recovery of the presynaptic marker synaptophysin concentration: 2-day recovery after 6-day 60 μM chloroquine, vs chloroquine baseline
Experimental: The method comprises treatment of a neural tissue culture with a lysosomal disruptor (e.g., chloroquine) to initiate lysosome dysfunction in the culture. The culture is treated with a lysosomal disruptor in order to reproduce features characteristic of neurodegeneration, especially those found in Alzheimer's disease (FIG. 7). Preferably, chloroquine is utilized for the lysosomal disruptor due to its broad targeting of pH-dependent enzymes by disrupting the proton gradient of lysosomes. Chloroquine is added to the culture for an extended period of time (the addition time period) to cause gradual cellular changes.
After a predetermined time, the lysosomal disrupter is removed from the culture and synaptic marker concentrations are determined. Subsequently, small amounts of compounds are administered to the neural tissue to modulate lysosomal enzymes. After such treatment, concentrations of synaptic markers in the neural tissue are determined, and the treated and untreated synaptic marker concentrations are compared to determine synaptic recovery (see FIG. 2). Thus by monitoring decline (during disruptor addition) and subsequent increase (during compound addition) of synaptic markers, synaptic degeneration and recovery can be assessed, and the efficacy of the added compounds can be measured.
In order to induce lysosomal dysfunction, 60 μM chloroquine in media was added separately to groups of hippocampal slice cultures. The chloroquine-containing media was changed every two days. Over a 6-day period, separate groups of slices were harvested and synaptic pathology assessed by determining the content of the postsynaptic marker GluR1. […] In a first set of slices the chloroquine was removed from the feeding media after the 6-day addition period and synaptic recovery was assessed after one and two days by measuring GluR1 concentration. […] Although the rate of decline slowed between the first and second day, there was no evidence of synaptic recovery.
In a second set of slices, synaptic recovery was assessed after removal of chloroquine-containing media and a single addition of 10 μM of the lysosomal modulator benzyloxycarbonyl-Phe-Ala-diazomethyiketone (PADK) in media was applied to cultures. As shown by the closed triangles, addition of PADK functioned to increase the GluR1 marker concentration, indicating recovery from synaptic degeneration.
Lysosomal dysfunction was induced by adding 60 μM chloroquine in media to separate groups of hippocampal slice cultures. The chloroquine-containing media was changed every two days for a total of six days. After the 6-day addition period, the chloroquine was removed from the feeding media of individual sets of cultures and presynaptic marker (synaptophysin) and postsynaptic marker (GluR1) concentrations assessed to provide a baseline indicated by the horizontal dotted lines in FIGS. 3A and 3B. 10 μM PADK, 10 μM Ampakine (trademark of Cortex Pharmaceuticals; Irvine, Calif.), and 10 μM memantine (derivatives of which are a trademark of Merz Pharmaceuticals; Germany) were added separately to separate chloroquine-treated cultures to assess their effects on synaptic recovery. After a 2-day recovery period, the separate groups of cultures were harvested and concentrations of presynaptic (synaptophysin) and postsynaptic (GluR1) markers were measured and compared to the reduced levels resulting from the 6-day chloroquine treatment. An increase from the baseline indicates recovery while no difference or further reduction of marker concentrations from the baseline indicates no recovery of synaptic maintenance.

[2] = test system: hippocampal slice cultures; test: Immunoblot of tau species and lysosomal enzymes after chloroquine-mediated lysosomal dysfunction in hippocampal slice cultures; assay type: cell-based, rat
From the text: Lysosomal dysfunction was produced in hippocampal slice cultures with chloroquine as in Example 2.

[3] = test system: hippocampal slice cultures; test: Horse-radish peroxidase dendritic transport scoring in hippocampal slice cultures; assay type: cell-based, rat
Experimental: Lysosomal dysfunction was produced in hippocampal slice cultures with chloroquine as in Example 2. Separate groups of slices were assessed for transport capability by applying horse-radish peroxidase to neurons and scoring its transport from cell bodies along dendrites by two independent observers. […] By monitoring intracellular tau deposition, microtubule stabilization marker (acetylated tubulin), and transport capability, it appears that changes in all of these related parameters contribute to the link between lysosomal modulation and synapse maintenance (FIG. 7).

lysosomal enzyme levels = test: Upmodulation of lysosomal enzyme levels in hippocampal slice cultures (Table 1); assay type: cell-based, rat; conditions: compounds individually applied to hippocampal slice cultures
From the text: Another aspect of the invention is the provision of compounds to increase cellular content (upmodulation) of lysosomal enzymes. As used herein “upmodulation” is an increase in the cellular content of lysosomal enzymes or in the content of lysosomes. Some inventive lysosomal modulating compounds are comprised by the previously described formulas (1) M-aan—CH═N═N, (2) M-aan—CH2—O—CO—[2-R-4-R-6-R-Phenyl], (3) M-aan—NH—CH2—CH N—NH—CO—NH2 and (4) M—N═N—CO—CH2-aan—O—R. Examples of compounds include, formula (1) benzyloxycarbonyl-Phe-Ala-diazomethylketone and benzyloxycarbonyl-Phe-Phe-diazomethylketone; formula (2) is benzyloxycarbonyl-Phe-Lys-2,4,6-trimethylbenzoyloxymethylketone; formula (3) is H-Gly-Phe-Gly-aldehyde semicarbazone; formula (4) is diazoacetyl-DL-2-aminohexanoic acid-methyl ester. When these compounds were individually applied to hippocampal slice cultures, each facilitated the upmodulation of lysosomal enzyme levels (Table 1). Each of the compounds is available from BACHEM Biosciences Inc. of King of Prussia, Pa. Presently, PADK is the preferred compound for modulation of lysosomal activity.
Lysosomal modulating compounds were identified that unexpectedly stimulate lysosomal activity and/or cellular feedback processes for the upregulation of lysosomal hydrolase levels. […] Thus the inventive lysosomal modulation promotes efficient tau turnover/processing and thereby reduces the ability of abnormally phosphorylated tau to drive non-pathogenic species off of microtubules and into the aggregated state. The non-pathogenic tau molecules would then be more readily available to stabilize microtubules and their transport mechanisms that are important for neuronal functions.

[4] = test system: hippocampal slice cultures; test: Continuous PADK application to hippocampal slice cultures over a 20-day period; assay type: cell-based, rat
From the text: One aspect of the invention is the use of compounds to modulate lysosomal activity. The modulation of lysosomal activity may be, but is not necessarily, accompanied by an increase in cellular content of lysosomes or lysosomal enzymes. Some inventive lysosomal modulating compounds comprise the previously described formulas (1) M-aan—CH═N═N, (2) M-aan—CH2—O—CO—[2-R-4-R-6-R-Phenyl], (3) M-aan—NH—CH2—CH═N—NH—CO—NH2, (4) M-N ═N—CO—CH2—aan—O—R, and combinations thereof. An example of formula (1) is benzyloxycarbonyl-Phe-Ala-diazomethylketone (PADK). As discussed in more detail later, PADK was applied to hippocampal slice cultures at a continuous concentration of 10 μM over a 20-day period. Fresh media and PADK compound were applied every two days.
Benzyloxycarbonyl-Phe-Ala-diazomethylketone (PADK) was applied to hippocampal slice cultures at a continuous concentration of 10 μM over a 20-day period. Fresh media and PADK compound were applied every two days. […] Thus the inventive lysosomal modulation promotes efficient tau turnover/processing and thereby reduces the ability of abnormally phosphorylated tau to drive non-pathogenic species off of microtubules and into the aggregated state. The non-pathogenic tau molecules would then be more readily available to stabilize microtubules and their transport mechanisms that are important for neuronal functions. Such an inverse correlation between the two forms of tau was also evident in the hippocampus of aged mice, where the change vs. age relationships determined for hyperphosphorylated and non-phosphorylated tau were of equal but opposite slopes. Thus, lysosomal modulators may intervene in the progression of certain types of neuronal atrophy, as well as in the cellular processes that contribute to synaptic loss and the severity of Alzheimer-type dementia.

cathepsin D = test: Cathepsin D in brain tissue of rats given PADK in drinking water; assay type: in vivo, rat; conditions: adult male rats, approximately 3 to 4 mg/kg/day, seven days, vs untreated group
Experimental: A further aspect of the invention is a method of modulating lysosomal function in a subject comprising administering to the subject a therapeutically effective amount of at least one inventive lysosome modulating compound or a physiologically acceptable salt thereof. As discussed in more detail later, the lysosome modulating compound benzyloxycarbonyl-Phe-Ala-diazomethylketone (PADK) was added to the drinking water of a first group of 5 adult male rats in an amount corresponding to 3 to 4 mg PADK/kg rat weight/day. […] After seven days, hippocampal and neocortical tissue was isolated from the first and the second groups. The concentration of the lysosomal enzyme cathepsin D in tissue samples was assessed by immunoblot for each of the groups.
The lysosomal modulator benzyloxycarbonyl-Phe-Ala-diazomethylketone (PADK) was added to the drinking water of a first group of 5 adult male rats in an amount corresponding to approximately 3 to 4 mg PADK/ kg rat weight/day. […] After seven days, hippocampal and neocortical tissue was isolated from the first and the second groups. The concentration of cathepsin D in tissue samples was assessed by immunoblot for each of the groups.

[5] = 6 days chloroquine then 2 days media alone, vs untreated control
[6] = 2 days PADK following 6-day chloroquine treatment
[7] = 10 μM continuous, 20-day period
[8] = PADK for two days following 6-day chloroquine period

SMILES: CC12CC3CC(C)(C1)CC(N)(C3)C2 [memantine, reference compound]
recovery of the postsynaptic marker GluR1 concentration ([1]; Example 3, 10 μM): No statistically significant recovery | recovery of the presynaptic marker synaptophysin concentration ([1]; Example 3, 10 μM): No statistically significant recovery | GluR1 level change vs baseline ([1]; Example 3, 10 μM, 2-day recovery period, FIG. 3A): small decrease

SMILES: CCN(CC)CCCC(C)Nc1ccnc2cc(Cl)ccc12 (centres unmarked) [chloroquine, reference compound]
GluR1 concentration during disruptor exposure ([1]; 60 μM, 6-day exposure period): decreased | cathepsin D (CD) [2, 5]: small compensatory increase | potentially pathogenic tau species of 55-69 kDa [2, 5]: enhanced levels | transport capacity ([3]; 6-day chloroquine followed by 2 days media alone, vs untreated slices): adversely affected

SMILES: NCC(=O)NC(Cc1ccccc1)C(=O)NCC=NNC(N)=O (stereo not drawn) [(4), H-Gly-Phe-Gly-aldehyde semicarbazone]
upmodulated cathepsin types (lysosomal enzyme levels): B, D

Further lines, with some results ahead:

upmodulated cathepsin types (lysosomal enzyme levels): B, D, S | 55-69 kDa tau species [2, 6]: reduction | cathepsin D [2, 6]: robust upmodulation | levels of lysosomal enzymes cathepsin B (CB), cathepsin D (CD), cathepsin S (CS) ([2]; FIG. 5 immunoblots): enhanced levels | control levels of tau isoforms ([2]; PADK addition alone (no chloroquine)): without altering | concentration of the lysosomal enzyme cathepsin D ([4]; 10 μM, after 5 days of treatment): not significantly altered | restoration of transport capability [3, 8]: significant restoration | transport failure [3, 8]: did not exhibit transport failure
SMILES: C[C@H](NC(=O)[C@H](Cc1ccccc1)NC(=O)OCc1ccccc1)C(=O)C=[N+]=[N-] [(1), benzyloxycarbonyl-Phe-Ala-diazomethylketone]
recovery from synaptic degeneration (GluR1) ([1]; Example 2, single 10 μM addition after 6-day chloroquine, one day): significant recovery | recovery of GluR1 level ([1]; Example 2, single 10 μM addition after 6-day chloroquine, two days): 71% | recovery of the postsynaptic marker GluR1 concentration ([1]; Example 3, 10 μM): 70% | recovery of the presynaptic marker synaptophysin concentration ([1]; Example 3, 10 μM): ~35% | cathepsin D levels [4, 7]: stably enhanced | non-pathogenic tau isoforms [4, 7]: gradual increase | pathogenic hyperphosphorylated tau species concentration [4, 7]: gradually reduced | synaptic marker (GluR1) [4, 7]: without any reduction | lysosomal enzyme (cathepsin D) concentration in hippocampal and neocortical tissue (cathepsin D): significant increases

upmodulated cathepsin types (lysosomal enzyme levels): B, D
SMILES: [N-]=[N+]=CC(=O)[C@H](Cc1ccccc1)NC(=O)[C@H](Cc1ccccc1)NC(=O)OCc1ccccc1 [(2), benzyloxycarbonyl-Phe-Phe-diazomethylketone] (Cbz-Phe-Phe-CHN2)

— patent US20020094958A1, “Materials for lysosome modulation and methods of use thereof” (priority 2000, published 2002)
